Measurements: patent US20170042869A1, “Methods for limiting acute kidney injury” (VANDERBILT UNIVERSITY, priority 2014, published 2017)

Experiments:
Assay type in all cases: in vivo
[1] = tested on: ischemia-reperfusion model of AKI in mice (IR-AKI); assay: IR-AKI mice, pyridoxamine pre-treatment, renal fibrosis and injury markers 28 days after injury; settings: day 28 after injury
Description: FIG. 1. Dose dependent effects of pre-treatment with pyridoxamine (PYR) at 500 and 1000 mg/kg/day on renal fibrosis 28 days after I/R-AKI. (A) Experimental model. Mice underwent unilateral renal pedicle clamping (U-IR) followed by contralateral nephrectomy 8 days after the initial surgery. All mice were pre-treated for 3 days with either vehicle control, or PYR 500 and 1000 mg/kg/day in drinking water supplemented with 200 mg PYR twice a day (or vehicle) by oral gavage for 3 days after each surgical procedure.
(§1) Treatment was continued for 28 days at which point mice were sacrificed and kidney harvested for analysis. (B-D) Expression of renal fibrosis markers Col1α1, α-SMA and Col3α1 mRNA relative to Gapdh mRNA control. (E) Quantification of Sirius red stained (% total area). (F) Representative images for Sirius red stained tissues (outer medulla; scale bars, 50 μm). Results expressed as mean +/−SEM, n=9-10 mice per group. Results only indicated if ANOVA p<0.05: *p<0.05, **p<0.01, ***p<0.001, #p<0.0001. Comparison with uninjured controls (no brackets), or vehicle treated mice (brackets).
FIG. 2. Dose dependent effects of pre-treatment with PYR at 500 and 1000 mg/kg/day on markers of renal injury 28 days after UR-AM. Effect of PYR on Kim1 (A) and NGAL (B) mRNA on day 28 after injury. Results expressed as mean +/−SEM, n=9-10 mice per group. Results only indicated if ANOVA p<0.05: *p<0.05, **p<0.01, ***p<0.001, #p<0.0001. Comparison with uninjured controls (no brackets), or vehicle treated mice (brackets).
(§2) Two doses of pyridoxamine were administered orally, 500 mg/kg/day and 1000 mg/kg/day to an experimental model of AM, the surgical, ischemia-reperfusion model of AKI in mice (IR-AKI) [Cianciolo Cosentino et al, 2013; Skrypnyk et al, 2013], a model of renal ischemia that has been used extensively to model ischemic injury associated with cardiac surgery acquired (CSA-AKI) [Thiele et al, 2015]. For the bulk of the studies pyridoxamine was administered for 3 days prior to the induction of AKI and was continued until completion of the studies. In some experiments, pyridoxamine was administered 24 hours after the induction of AM.
The injury models and treatments were administered as illustrated in FIG. 1A. Mice underwent unilateral renal pedicle clamping (LT-IR) followed by contralateral nephrectomy 8 days after the initial surgery. All mice were pre-treated for 3 days with either vehicle control, or PYR 500 and 1000 mg/kg/day in drinking water supplemented with 200 mg PYR twice a day (or vehicle) by oral gavage for 3 days after each surgical procedure. Treatment was continued for 28 days at which point mice were sacrificed and kidneys harvested for analysis.

[2] = tested on: ischemia-reperfusion model of AKI in mice (IR-AKI); assay: IR-AKI mice, pyridoxamine pre-treatment, renal injury and oxidative stress 3 days after injury; settings: pre-treatment 1000 mg/kg/day, day 3 after injury, vs vehicle
Description: FIG. 5. Dose dependent effect of pre-treatment with PYR at 500 and 1000 mg/kg/day on renal injury 3 days after I/R-AKI. (A) Experimental model, Mice underwent U-IR and were pre-treated for 3 days with either vehicle control, PYR 500 mg/kg/day or PYR 1000 mg/kg/day in drinking water supplemented with 200 mg PYR twice a day (or vehicle) by oral gavage for 3 days after the surgical procedure. Mice were sacrificed and kidney harvested for analysis 3 days after the initial injury. (B, C) Renal Kim1 and NGAL mRNA expression 3 days after injury expressed as the ratio to Gapdh mRNA control. (D) Tubular injury score 3 days after injury in the OM (0-4, arbitrary units). (E) Representative images for PAS stained tissues (outer medulla; scale bars, 50 μm) F) Expression renal isofuran/isoprostane ratios after
PYR treatment with 500 and 1000 mg/kg/day 3 days after LI-IR. Results expressed as mean +/−SEM, n=9-10 mice per group. Results only indicated if ANOVA p<0.05: *p<0.05, **p<0.01, ***p<0.001, #p<0.0001. Comparison with uninjured (no brackets), or vehicle or PYR 500 mg/kalday treated mice (brackets).
as §2
To determine whether there was also a dose-dependent effect of pyridoxamine at 500 and 1000 mg/kg/day on early renal injury after IR-AKI, mice were sacrificed on day 3 after injury (FIG. 5A) to evaluate renal injury and renal oxidative stress levels.

[3] = tested on: ischemia-reperfusion model of AKI in mice (IR-AKI); assay: IR-AKI mice, pyridoxamine treatment started 24 hours after injury, renal fibrosis and injury markers at 28 days; settings: 1000 mg/kg/day started 24 hours after injury, day 28
Description: as §1, with “FIG. 3. […] (A) Experimental model. Mice underwent U-IR followed by contralateral nephrectomy 8 days after the initial surgery. Mice were treated with PYR 1000 mg/kg/day starting 24 hours after the initial injury supplemented with 200 mg PYR twice a day (or vehicle) by oral gavage for 3 days after each surgical procedure. Treatment” for “Treatment”, “n=8-10/group.” for “n=9-10 mice per group.”, “Results” for “Results only”, “uninjured” for “uninjured controls”, “or delayed PYR treatment” for “treated mice”
FIG. 4. No effects of treatment with PYR at 1000 mg/kg/day started 24 hours after injury on markers of renal injury 28 days after I/R-AKI. (A, B) Expression of renal injury markers Kim1 and NGAL mRNA relative to Gapdh mRNA control on day 28 after injury. Results expressed as mean +/−SEM, n=8-10/group. Results indicated if ANOVA p<0.05: *p<0.05, **p<0.01, ***p<0.001, #p<0.0001. Comparison with uninjured (no brackets), or vehicle or delayed PYR treatment (brackets).
as §2
To determine whether delayed treatment with the high dose of pyridoxamine was effective in reducing post-injury fibrosis after IR-AKI, mice were treated with PYR 1000 mg/kg/day starting 24 hours after the initial injury supplemented with 200 mg PYR twice a day (or vehicle) by oral gavage for 3 days after each surgical procedure. Treatment was continued for 28 days at which point mice were sacrificed and kidney harvested for analysis (FIG. 3A).

[4] = Plasma pyridoxamine levels after I/R-AKI; settings: mice with IR-AKI; for average pyridoxamine plasma levels: 1000 mg/kg/day
Description: FIG. 6. Plasma PYR levels after I/R-AKI. (A) Mice underwent U-IR and were pre-treated for 3 days with vehicle control, PYR 500 mg/kg/day or PYR 1000 mg/kg/day in drinking water supplemented with 200 mg PYR twice a day (or vehicle) by oral gavage for 3 days after the surgical procedure. Evaluation of PYR plasma levels on Day 3 after injury. (B) Mice underwent U-IR followed by contralateral nephrectomy 8 days after the initial surgery. All mice were pre-treated with vehicle control, PYR 500 mg/kg/day or 1000 mg/kg/day in drinking water supplemented with 200 mg PYR twice a day (or vehicle) by oral gavage for 3 days after each surgical procedure. Treatment was continued for 28 days at which point mice underwent venesection for analysis of plasma PYR levels. Evaluation of PYR plasma levels on Day 28 after injury. Results expressed as mean +/−SEM, n=9-10 mice per group. Results only indicated if ANOVA p<0.05: *p<0.05, **p<0.01, ***p<0.001, #p<0.0001. Comparison with uninjured controls (no brackets), or vehicle or PYR 500 mg/kg/day treated mice (brackets).

[5] = pre-treatment 500 and 1000 mg/kg/day oral, kidney, vs vehicle

In the case of `Cc1ncc(CO)c(CN)c1O` [pyridoxamine], the “expression of pro-fibrotic gene Col1α1 mRNA” value [1, 5] was “lowered expression”, the “expression of pro-fibrotic gene Col3α1 mRNA” value [1, 5] was “lowered expression” and the “expression of pro-fibrotic gene αSMA mRNA” value [1, 5] was “lowered expression”. For the same compound, the “level of fibrosis (Sirius red staining)” value [1, 5] was “decreased level of fibrosis”, the “expression of renal injury marker Kim1” value ([1]; pre-treatment 500 and 1000 mg/kg/day) was “lowered expression” and the “histological tubular injury scores” value ([2]; outer medulla) was “reduction”. The “renal NGAL mRNA expression” value [2] was “significant, dose-dependent decrease”, the “renal levels of oxidative stress marker isofuran-to-isoprostane ratio” value [2] was “reduction” and the “expression of injury marker Kim1” value [3] was “did not lower expression”. The “expression of injury marker NGAL” value [3] was “did not lower expression”, the “expression of pro-fibrotic gene Col3α1 mRNA” value [3] was “lowered expression” and the “expression of pro-fibrotic gene αSMA mRNA” value [3] was “lowered expression”. For the same compound, the “post-injury fibrosis (Sirius red staining)” value [3] was “decreased post-injury fibrosis”, the “expression of injury marker Kim1” value ([3]; listed as PYR) was “No effects” and the “expression of injury marker NGAL” value ([3]; listed as PYR) was “No effects”. The “post-injury fibrosis (Sirius red staining)” value ([3]; listed as PYR) was “Beneficial effects”, the “average pyridoxamine plasma levels” value ([4]; day 3) was ~6 µg/mL and the “average pyridoxamine plasma levels” value ([4]; day 28) was ~6 µg/mL. For the same compound, the “plasma pyridoxamine levels, dose dependence” value ([4]; 500 vs 1000 mg/kg/day, days 3 and 28) was “dose-dependent increase”.
